Patent publication US20110237594A1, “FUNGICIDE HERETOCYCLYL-TRIAZINYL-AMINO DERIVATIVES” (priority 2008, published 2011)

System: Botrytis cinerea
Test: In vivo test on Botrytis cinerea (grey mould)
Settings: gherkin plants, sprayed 24 hours before contamination, dose 500 ppm, grading 5/7 days after contamination
Method: Plants, used as controls, are treated with an aqueous solution not containing the active material. After 24 hours, the plants are contaminated by depositing drops of an aqueous suspension of Botrytis cinerea spores (150,000 spores per ml) on upper surface of the leaves. The spores are collected from a 15-day-old culture and are suspended in a nutrient solution composed of: • 20 g/L of gelatine; • 50 g/L of D-fructose; • 2 g/L of NH4NO3; • 1 g/L of KH2PO4. The contaminated cucumber plants are settled for 5/7 days in a climatic room at 15-11° C. […] Grading is carried out 5/7 days after the contamination, in comparison with the control plants. Under these conditions, good (at least 70%) or total protection is observed at a dose of 500 ppm with the following compound: A14

Row | Compound | protection (good, at least 70%, or total)
1 | CCC(C)Nc1cc(-c2ncnc(Nc3ccc(OC)nc3)n2)ccn1 (centres unmarked) [Compound A14] | at least 70%

System: Pyrenophora teres
Test: In vivo test on Pyrenophora teres (barley net blotch)
Settings: barley plants, sprayed 24 hours before contamination, dose 500 ppm, grading 12 days after contamination
Method: Barley plants (Express variety), sown on a 50/50 peat soil-pozzolana substrate in starter cups and grown at 12° C., are treated at the 1-leaf stage (10 cm tall) by spraying with the active ingredient prepared as described above. Plants, used as controls, are treated with an aqueous solution not containing the active material. After 24 hours, the plants are contaminated by spraying them with an aqueous suspension of Pyrenophora teres spores (12,000 spores per ml). The spores are collected from a 12-day-old culture. […] Grading is carried out 12 days after the contamination, in comparison with the control plants. Under these conditions, good (at least 70%) is observed at a dose of 500 ppm with the following compound: A14

Row | Compound | protection (good, at least 70%)
2 | CCC(C)Nc1cc(-c2ncnc(Nc3ccc(OC)nc3)n2)ccn1 (centres unmarked) [Compound A14] | at least 70%

System: Pyricularia oryzae
Test: not given
Type: in vivo
Settings: rice, protective, 250 ppm of active ingredient, evaluated 5 days after inoculation

Row | Compound | efficacy
3 | CCC(C)Nc1cc(-c2ncnc(Nc3ccc(OC)nc3)n2)ccn1 (centres unmarked) [Compound A14] | ≥ 80%

System: Rhizoctonia solani
Test: Rhizoctonia test (rice) / protective
Type: in vivo
Settings: 250 ppm of active ingredient, evaluated 4 days after inoculation
Method: To produce a suitable preparation of active compound, 1 part by weight of active compound is mixed with the stated amounts of solvent and emulsifier, and the concentrate is diluted with water to the desired concentration. To test for protective activity, young plants are sprayed with the preparation of active compound at the stated rate of application. One day after spraying, the plants are inoculated with a hypha of the causal agent of rice sheath blight (Rhizoctonia solani). The plants are then placed in an incubator at approximately 25° C. and a relative atmospheric humidity of approximately 100%.

Row | Compound | efficacy
4 | CCC(C)Nc1cc(-c2ncnc(Nc3ccc(OC)nc3)n2)ccn1 (centres unmarked) [Compound A14] | ≥ 80%

System: Cochliobolus miyabeanus
Test: Cochliobolus test (rice) / protective
Type: in vivo
Settings: 250 ppm of active ingredient, evaluated 4 days after inoculation

Row | Compound | efficacy
5 | CCC(C)Nc1cc(-c2ncnc(Nc3ccc(OC)nc3)n2)ccn1 (centres unmarked) [Compound A14] | ≥ 80%

System: not listed separately
Test: logP by HPLC on reversed phase columns (EEC directive 79/831 Annex V.A8)
Settings: [c] LC-MS at pH 7.8, 0.001 molar ammonium hydrogen carbonate in water, gradient 10% to 95% acetonitrile

Row | Compound | Lop p
6 | C=C(C)CNc1cc(-c2ncnc(Nc3ccc(OC)nc3)n2)ccn1 [Compound A6] | 2.57[c]
7 | COc1ccc(Nc2ncnc(-c3ccnc(NCCOC(C)C)c3)n2)cn1 [Compound A10] | 2.53[c]
8 | COCC(C)Nc1cc(-c2ncnc(Nc3ccc(OC)nc3)n2)ccn1 (centres unmarked) [Compound A1] | 2.25[c];
9 | COc1ccc(Nc2ncnc(-c3ccnc(NCC(C)C)c3)n2)cn1 [Compound A2, N-(6-methoxypyridin-3-yl)-4-{2-[(2-methylpropyl)amino]pyridin-4-yl}-1,3,5-triazin-2-amine] | 2.52[c]
10 | COc1ccc(Nc2ncnc(-c3ccnc(NCCC(C)C)c3)n2)cn1 [Compound A11] | 3.27[c]
11 | COc1ccc(Nc2ncnc(-c3ccnc(NCCSC)c3)n2)cn1 [Compound A12] | 2.44[c]
12 | CCSCCNc1cc(-c2ncnc(Nc3ccc(OC)nc3)n2)ccn1 [Compound A4] | 2.78[c]
13 | COc1ccc(Nc2ncnc(-c3ccnc(NCC4CCCO4)c3)n2)cn1 (centres unmarked) [Compound A13] | 2.17[c]
14 | COc1ccc(Nc2ncnc(-c3ccnc(NCCCSC)c3)n2)cn1 [Compound A7] | 2.62[c]
15 | CCC(C)Nc1cc(-c2ncnc(Nc3ccc(OC)nc3)n2)ccn1 (centres unmarked) [Compound A14] | 2.47[c]
16 | COc1ccc(Nc2ncnc(-c3ccnc(NC(C)CN(C)C)c3)n2)cn1 (centres unmarked) [Compound A5] | 1.45[c]
17 | COc1ccc(Nc2ncnc(-c3ccnc(NCC(C)O)c3)n2)cn1 (centres unmarked) [Compound A8] | 1.7[c]
18 | CCC(O)CNc1cc(-c2ncnc(Nc3ccc(OC)nc3)n2)ccn1 (centres unmarked) [Compound A9] | 1.97[c]

Same assay, conditions: unmarked values: LC-MS at pH 2.7, 0.1% formic acid in water / acetonitrile, gradient 10% to 95% acetonitrile

Row | Compound | Lop p
19 | CC(C)=CCN(C)c1cc(-c2ncnc(Nc3ccsc3)n2)ccn1 [Compound A33] | 2.14
20 | COCCNc1cc(-c2ncnc(Nc3ccsc3)n2)ccn1 [Compound A18] | 1.28
21 | CCC(COC)Nc1cc(-c2ncnc(Nc3ccsc3)n2)ccn1 (centres unmarked) [Compound A30] | 1.6
22 | COCC(C)Nc1cc(-c2ncnc(Nc3ccc(OC)nc3)n2)ccn1 (centres unmarked) [Compound A1] | 1.3
23 | CN(C)c1cc(-c2ncnc(Nc3ccsc3)n2)ccn1 [Compound A35] | 1.22
24 | CCCN(C)c1cc(-c2ncnc(Nc3ccsc3)n2)ccn1 [Compound A28] | 1.63
25 | CC(C)CCN(C)c1cc(-c2ncnc(Nc3ccsc3)n2)ccn1 [Compound A32] | 2.18
26 | CN(CC1CC1)c1cc(-c2ncnc(Nc3ccsc3)n2)ccn1 [Compound A21] | 1.75
27 | CCN(CC)c1cc(-c2ncnc(Nc3ccsc3)n2)ccn1 [Compound A29] | 1.57
28 | O=CNc1cc(-c2ncnc(Nc3ccsc3)n2)ccn1 [Compound A36] | 1.9
29 | C=CCN(C)c1cc(-c2ncnc(Nc3ccsc3)n2)ccn1 [Compound A27] | 1.48
30 | CC(C)C(C)Nc1cc(-c2ncnc(Nc3ccsc3)n2)ccn1 (centres unmarked) [Compound A17] | 1.79
31 | CN(CC(F)(F)F)c1cc(-c2ncnc(Nc3ccsc3)n2)ccn1 [Compound A23] | 3.42
32 | COCC(C)Nc1cc(-c2ncnc(Nc3ccsc3)n2)ccn1 (centres unmarked) [Compound A15] | 1.4
33 | COC1CCCN(c2cc(-c3ncnc(Nc4ccsc4)n3)ccn2)C1 (centres unmarked) [Compound A25] | 1.74
34 | CCC(C(C)OC)N(C)c1cc(-c2ncnc(Nc3ccsc3)n2)ccn1 (centres unmarked) [Compound A22] | 2.14
35 | CCCC(C)Nc1cc(-c2ncnc(Nc3ccsc3)n2)ccn1 (centres unmarked) [Compound A31] | 1.84
36 | CC(C)(C)OC(=O)Nc1cc(-c2ncnc(Nc3ccsc3)n2)ccn1 [Compound A19] | 3.39
37 | CN(c1cc(-c2ncnc(Nc3ccsc3)n2)ccn1)C1CCCC1 [Compound A34] | 1.93
38 | CN(CC1CCCO1)c1cc(-c2ncnc(Nc3ccsc3)n2)ccn1 (centres unmarked) [Compound A24] | 1.59
39 | COCCN(C)c1cc(-c2ncnc(Nc3ccsc3)n2)ccn1 [Compound A26] | 1.45
40 | Nc1cc(-c2ncnc(Nc3ccsc3)n2)ccn1 [Compound A20] | 0.98
41 | CC(C)CN(C)c1cc(-c2ncnc(Nc3ccsc3)n2)ccn1 [Compound A16] | 1.86
